Results: PMC12298624, “Anti-Infective Properties, Cytotoxicity, and In Silico ADME Parameters of Novel 4′-(Piperazin-1-yl)benzanilides” (Pharmaceuticals, 2025)
Like-named read-outs stand apart in the source and are kept apart here.

Legend:
P. falciparum NF54 [1] = test system: P. falciparum NF54; parameters: method as in PMID 34832891, PMID 36558954; conditions: Figure 1, earlier studies; ref [12],[13]; read-out: PfNF54 IC50; cited from earlier work
P. falciparum NF54 [2] = assay: In vitro microplate assay against P. falciparum NF54 (3H-hypoxanthine incorporation); assay type: cell-based, Plasmodium falciparum; conditions: chloroquine-sensitive strain NF54, erythrocytic stages; read-out: P.f.NF54 IC50
Outline: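 Parasites exposed to eleven 3-fold drug dilutions spanning 100 to 0.002 µg/mL for 48 h, then ^3H-hypoxanthine (0.5 µCi/well) added for a further 24 h. Incorporated radioactivity counted by liquid scintillation after harvesting onto glass fiber filters. IC50 from sigmoidal inhibition curves by linear regression.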

HepG2 cells = assay: Resazurin-based in vitro cytotoxicity with HepG2 cells; assay type: cell-based, human
Outline: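 HepG2 cells, 5000 per well in DMEM with 1% FBS, exposed 48 h at 37° C to ten 3-fold dilutions (100.0–0.005 µM). Then 50 µM resazurin for 3 h, fluorescence read at 555/570 nm, IC50 calculated; doxorubicin as control.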

L-6 cells = assay: Resazurin-based in vitro cytotoxicity with L-6 cells; assay type: cell-based, rat
Outline: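 Compounds tested in eleven 3-fold serial dilutions from 100 to 0.002 µg/mL over 70 h incubation. IC50 obtained by linear regression from sigmoidal dose–inhibition curves.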

Molecule | IC50 (P. falciparum NF54 [1]) [nM] | IC50 (P. falciparum NF54 [2]) [nM] | IC50 (HepG2 cells) [nM] | IC50 (L-6 cells) [nM]
CC(C)(C)OC(=O)N1CCN(c2ccc(NC(=O)c3cccc(C(F)(F)F)c3Nc3ccc(F)cc3)cc2)CC1 [derivate IV] | 540 | – | – | –
2-(4-Fluorophenoxy)-N-[4-(pyrrolidin-4-yl)phenyl]-3-(trifluoromethyl)benzamide [Compound 34] | – | 1680 | 39800 | 185000
CC(C)(C)OC(=O)N1CCN(c2ccc(NC(=O)c3cccc(C(F)(F)F)c3Sc3ccc(F)cc3)cc2)CC1 [derivate III] | 150 | – | – | –
CC(C)(C)OC(=O)N1CCN(c2ccccc2NC(=O)c2cccc(C(F)(F)F)c2Oc2ccc(F)cc2)CC1 [MMV030666, tert-Butyl-4-{2-[2-(4-fluorophenoxy)-3-(trifluoromethyl)benzamido]phenyl}pipera-zine-1-carboxylate] | 410 | – | – | –
